Measurements: ChEMBL document CHEMBL1126355, “The basis for slowly reversible inhibition of dehydroquinate synthase: a case of mistaken identity?” (Bioorg Med Chem Lett, 1992)

Key:
[1] = molecular target: T1, 3-dehydroquinate synthase (Escherichia coli K-12) (UniProt P07639); test: […] rate constant against 3-dehydroquinate synthase
T1 sequence (whole entry): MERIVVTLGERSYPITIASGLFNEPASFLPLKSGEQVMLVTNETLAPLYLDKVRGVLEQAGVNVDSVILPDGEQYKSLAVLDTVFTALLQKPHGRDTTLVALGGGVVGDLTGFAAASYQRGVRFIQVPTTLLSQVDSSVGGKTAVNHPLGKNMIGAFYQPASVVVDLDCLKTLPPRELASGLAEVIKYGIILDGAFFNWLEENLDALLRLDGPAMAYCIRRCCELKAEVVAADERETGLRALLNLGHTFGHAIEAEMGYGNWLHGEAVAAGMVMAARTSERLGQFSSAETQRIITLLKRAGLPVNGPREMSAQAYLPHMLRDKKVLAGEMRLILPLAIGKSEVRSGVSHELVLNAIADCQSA

[2] = molecular target: T1, 3-dehydroquinate synthase (Escherichia coli K-12); test: Type of inhibition of 3-dehydroquinate synthase was determined; R - Slowly reversible
[3] = molecular target: T2, 3-dehydroquinate synthase (Escherichia coli K-12, UniProt P07639); test: Inhibition constant against 3-dehydroquinate synthase
T2 sequence (P07639 whole entry): T1 sequence (whole entry)

[4] = molecular target: T1, 3-dehydroquinate synthase (Escherichia coli K-12); test: Rate constant against 3-dehydroquinate synthase

k off [1] [s⁻¹]	inhibition [2]	Ki [3] [nM]	k on [4] [M⁻¹ s⁻¹]	Compound
0.00075	R	5.4	140000	O=C(O)C1(O)CC(O)C(O)C(CP(=O)(O)O)C1 (centres undefined)
0.00054	R	540	1000	O=C(O)C1(O)CC(O)CC(CP(=O)(O)O)C1 (centres undefined)

Compound	k off [1] [s⁻¹]	inhibition [2]	Ki [3] [nM]	k on [4] [M⁻¹ s⁻¹]
O=C(O)C1(O)CCC(O)C(CP(=O)(O)O)C1 (centres undefined)		R		
